Test results taken from ChEMBL document CHEMBL1125149, “Quinazoline antifolate thymidylate synthase inhibitors: benzoyl ring modifications in the C2-methyl series” (J Med Chem, 1990).

Assays:
L1210 [1] = assay: (§1) Percent control for L1210 cell growth in the presence of thymidine (in vitro); type: functional, Mus musculus; set-up: concentration or dose not given beside the values
L1210 [2] = assay: Growth inhibition of L1210 cells in culture.; type: functional, cell-based; conditions: Mus musculus
Thymidylate synthase = Thymidylate synthase (Mus musculus, UniProt P07607); assay: Inhibition of partially purified thymidylate synthase (TS)
Thymidylate synthase, sequence (P07607 whole entry): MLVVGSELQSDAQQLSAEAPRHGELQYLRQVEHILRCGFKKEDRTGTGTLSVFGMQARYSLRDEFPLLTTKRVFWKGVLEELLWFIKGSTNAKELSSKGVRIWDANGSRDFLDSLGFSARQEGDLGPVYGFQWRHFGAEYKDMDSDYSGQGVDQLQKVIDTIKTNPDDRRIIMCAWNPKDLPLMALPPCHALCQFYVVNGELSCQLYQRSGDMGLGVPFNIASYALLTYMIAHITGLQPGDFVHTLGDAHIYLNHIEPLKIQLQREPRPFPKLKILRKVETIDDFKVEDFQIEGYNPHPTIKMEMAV

L1210 [3] = assay: as §1; type: functional, Mus musculus

| SMILES | Control (L1210 [1]) | IC50 (L1210 [2]) | IC50 (Thymidylate synthase) | Control (L1210 [3]) |
| --- | --- | --- | --- | --- |
| CCN(Cc1ccc2nc(C)[nH]c(=O)c2c1)c1ccc(C(=O)N[C@@H](CCC(=O)O)C(=O)O)c(C)c1 | 94% | 1200 nM | 320 nM | – |
| C#CCN(Cc1ccc2nc(C)[nH]c(=O)c2c1)c1ccc(C(=O)N[C@@H](CCC(=O)O)C(=O)O)c(Cl)c1 | – | 250 nM | 74 nM | – |
| C#CCN(Cc1ccc2nc(C)[nH]c(=O)c2c1)c1ccc(C(=O)N[C@@H](CCC(=O)O)C(=O)O)cc1F | 102% | 52 nM | 1430 nM | – |
| C#CCN(Cc1ccc2nc(C)[nH]c(=O)c2c1)c1ccc(C(=O)N[C@@H](CCC(=O)O)C(=O)O)c(F)c1 | 97% | – | – | – |
| C#CCN(Cc1ccc2nc(C)[nH]c(=O)c2c1)c1ccc(C(=O)N[C@@H](CCC(=O)O)C(=O)O)c(OC)c1 | 95% | 3000 nM | 67 nM | – |
| CCN(Cc1ccc2nc(C)[nH]c(=O)c2c1)c1ccc(C(=O)N[C@@H](CCC(=O)O)C(=O)O)cc1F | 96% | 86 nM | 680 nM | – |
| Cc1nc2ccc(CN(C)c3ccc(C(=O)N[C@@H](CCC(=O)O)C(=O)O)cc3F)cc2c(=O)[nH]1 | – | 140 nM | 1140 nM | 92% |
| C#CCN(Cc1ccc2nc(C)[nH]c(=O)c2c1)c1ccc(C(=O)N[C@@H](CCC(=O)O)C(=O)O)cc1 | 100% | – | – | – |
| C#CCN(Cc1ccc2nc(C)[nH]c(=O)c2c1)c1ccc(C(=O)N[C@@H](CCC(=O)O)C(=O)O)c(O)c1 | 77% | 500 nM | 90 nM | – |
| C=CCN(Cc1ccc2nc(C)[nH]c(=O)c2c1)c1ccc(C(=O)N[C@@H](CCC(=O)O)C(=O)O)c(F)c1 | 97% | 100 nM | 76 nM | – |
| Cc1nc2ccc(CN(C)c3ccc(C(=O)N[C@@H](CCC(=O)O)C(=O)O)c(F)c3)cc2c(=O)[nH]1 | 98% | 19 nM | 120 nM | – |
| C#CCN(Cc1ccc2nc(C)[nH]c(=O)c2c1)c1ccc(C(=O)N[C@@H](CCC(=O)O)C(=O)O)c(C(F)(F)F)c1 | – | 1200 nM | 480 nM | – |
| Cc1nc2ccc(CN(CCO)c3ccc(C(=O)N[C@@H](CCC(=O)O)C(=O)O)cc3F)cc2c(=O)[nH]1 | 95% | 85 nM | 3580 nM | – |
| CCN(Cc1ccc2nc(C)[nH]c(=O)c2c1)c1ccc(C(=O)N[C@@H](CCC(=O)O)C(=O)O)c(Cl)c1 | – | 870 nM | 120 nM | – |
| Cc1nc2ccc(CN(CC(N)=O)c3ccc(C(=O)N[C@@H](CCC(=O)O)C(=O)O)c(F)c3)cc2c(=O)[nH]1 | – | 800 nM | 1340 nM | – |
| Cc1nc2ccc(CN(CCF)c3ccc(C(=O)N[C@@H](CCC(=O)O)C(=O)O)cc3F)cc2c(=O)[nH]1 | – | 69 nM | 1750 nM | – |
| Cc1nc2ccc(CNc3ccc(C(=O)N[C@@H](CCC(=O)O)C(=O)O)cc3F)cc2c(=O)[nH]1 | 86% | 120 nM | 9340 nM | – |
| Cc1nc2ccc(CN(C)c3ccc(C(=O)N[C@@H](CCC(=O)O)C(=O)O)cc3)cc2c(=O)[nH]1 | 100% | – | – | – |
| C=CCN(Cc1ccc2nc(C)[nH]c(=O)c2c1)c1ccc(C(=O)N[C@@H](CCC(=O)O)C(=O)O)cc1F | 97% | 140 nM | 5160 nM | – |

| SMILES | Control (L1210 [1]) | IC50 (L1210 [2]) | IC50 (Thymidylate synthase) | Control (L1210 [3]) |
| --- | --- | --- | --- | --- |
| CCN(Cc1ccc2nc(C)[nH]c(=O)c2c1)c1ccc(C(=O)N[C@@H](CCC(=O)O)C(=O)O)c(OC)c1 | – | 18000 nM | 190 nM | – |
| Cc1nc2ccc(CN(CCF)c3ccc(C(=O)N[C@@H](CCC(=O)O)C(=O)O)c(F)c3)cc2c(=O)[nH]1 | 98% | 130 nM | 43 nM | – |
| C#CCN(Cc1ccc2nc(C)[nH]c(=O)c2c1)c1ccc(C(=O)N[C@@H](CCC(=O)O)C(=O)O)c(C)c1 | 97% | 360 nM | 500 nM | – |
| C=CCN(Cc1ccc2nc(C)[nH]c(=O)c2c1)c1ccc(C(=O)N[C@@H](CCC(=O)O)C(=O)O)cc1 | 104% | – | – | – |
| Cc1nc2ccc(CN(CCCO)c3ccc(C(=O)N[C@@H](CCC(=O)O)C(=O)O)c(F)c3)cc2c(=O)[nH]1 | 95% | 30 nM | 590 nM | – |
| C#CCN(Cc1ccc2nc(C)[nH]c(=O)c2c1)c1ccc(C(=O)N[C@@H](CCC(=O)O)C(=O)O)c([N+](=O)[O-])c1 | – | 400 nM | 130 nM | – |
| CCN(Cc1ccc2nc(C)[nH]c(=O)c2c1)c1ccc(C(=O)N[C@@H](CCC(=O)O)C(=O)O)cc1 | 88% | – | – | – |
| CCN(Cc1ccc2nc(C)[nH]c(=O)c2c1)c1ccc(C(=O)N[C@@H](CCC(=O)O)C(=O)O)c([N+](=O)[O-])c1 | – | 1500 nM | 145 nM | – |
| CCN(Cc1ccc2nc(C)[nH]c(=O)c2c1)c1ccc(C(=O)N[C@@H](CCC(=O)O)C(=O)O)c(N)c1 | – | 1300 nM | 310 nM | – |
| Cc1nc2ccc(CNc3ccc(C(=O)N[C@@H](CCC(=O)O)C(=O)O)c(F)c3)cc2c(=O)[nH]1 | 94% | 64 nM | 3780 nM | – |
| Cc1nc2ccc(CN(CCN)c3ccc(C(=O)N[C@@H](CCC(=O)O)C(=O)O)c(F)c3)cc2c(=O)[nH]1 | – | 2700 nM | 11700 nM | – |
| Cc1nc2ccc(CN(CCCO)c3ccc(C(=O)N[C@@H](CCC(=O)O)C(=O)O)cc3)cc2c(=O)[nH]1 | 95% | – | – | – |
| Cc1nc2ccc(CN(C)c3ccc(C(=O)N[C@@H](CCC(=O)O)C(=O)O)c(N)c3)cc2c(=O)[nH]1 | – | 760 nM | 860 nM | – |
| Cc1nc2ccc(CN(CCO)c3ccc(C(=O)N[C@@H](CCC(=O)O)C(=O)O)c(F)c3)cc2c(=O)[nH]1 | – | 70 nM | 78 nM | – |
| Cc1nc2ccc(CN(CCCO)c3ccc(C(=O)N[C@@H](CCC(=O)O)C(=O)O)cc3F)cc2c(=O)[nH]1 | – | 170 nM | 980 nM | – |
| Cc1nc2ccc(CN(CC#N)c3ccc(C(=O)N[C@@H](CCC(=O)O)C(=O)O)c(F)c3)cc2c(=O)[nH]1 | 90% | 34 nM | 170 nM | – |
| CCN(Cc1ccc2nc(C)[nH]c(=O)c2c1)c1ccc(C(=O)N[C@@H](CCC(=O)O)C(=O)O)c(F)c1 | 96% | 65 nM | 45 nM | – |
| C#CCN(Cc1ccc2nc(C)[nH]c(=O)c2c1)c1ccc(C(=O)N[C@@H](CCC(=O)O)C(=O)O)c(N)c1 | – | 360 nM | 290 nM | – |
| Cc1nc2ccc(CN(C)c3ccc(C(=O)N[C@@H](CCC(=O)O)C(=O)O)c(C)c3)cc2c(=O)[nH]1 | – | 800 nM | 940 nM | – |
